13 compounds from patent EP0728012B1, “NOVEL GnRH ANALOGUES WITH ANTITUMOUR EFFECTS AND PHARMACEUTICAL COMPOSITIONS THEREOF” (Lovas, Sandor, priority 1994, dated 1996) can be followed below.

Like-named read-outs stand apart in the source and are kept apart here. Non-standard residues stand in square brackets, D forms with d. Residues, ends and D or L forms follow the SMILES beside them. pGlu = O=C1CC[C@@H](C(=O)O)N1

One assay has as its system Ishikawa. Put plainly: Inhibition of colony formation by GnRH analogues (dose-survival, Example 48). Type of assay: cell-based, human. The following applies: 50 µM. As to the method:
(§1) The examination gives accurate information about the cell-damaging effect of the substance tested as a function of varying doses. The treatment was carried out once; the colonies formed from the surviving cells were counted after 8 - 12 days. […] A part of the arrested cells again entered the cycle, another part of them might be destroyed (apoptosis). […] In the case of a dose-response investigation, colonies containing less than 15 cells were not counted. 300 cells were put into each Petri dishes of 3.5 cm in diameter. The treatment was once carried out 24 hours after setting, then the colonies formed were counted after 8 - 12 days. The cells were treated once after 24 hours with 1-50 µM of various GnRH analogues of Examples above or with 1 - 50 µM of GnRH-III, respectively. The percentages of inhibition obtained on MCF-7, MDA-MB-231, PC3 and Ishikawa cells, respectively, together with the dose of the active agent used are shown in Table VIII.

For assay [1], the system named is MCF-7. The assay is described as above. Type of assay: cell-based, human. The following applies: treated once. As to the method:
as §1

For the next assay, the system named is human tumour cell lines. The assay can be described thus: Inhibition of colony formation (Example 48), comparison with the control D-Trp^6-hGnRH. Type of assay: cell-based. The following applies: data of Table VIII. As to the method: as §1
In these studies the D-Trp^6-hGnRH analogue (Sigma Co.) commonly used in the tumour therapy was employed as control.

Assay [2] relates to Ishikawa human endometrium carcinoma cell line. The assay can be described thus: Inhibition of colony formation (dose-survival relation, Example 18). The conditions noted are these: for % Inhibition of colony formation: 50 µM; for inhibition of colony formation: concentration not given. Type of assay: cell-based. As to the method: (§2) In the case of cytostatics the cell-damaging effect is not cell-specific. […] One part of the arrested cells again go into the cycle, the other part may perish (apoptosis). […] The investigations were carried out on MCF-7 and MDA-MB-231 human mammary carcinoma cell lines, PC3 human prostate 15 carcinoma cell line and Ishikawa human endometrium carcinoma cell line. Three hundred cells were set into Petri dishes of 3.5 cm in diameter each. The treatment was carried out once, 24 hours following the explantation, then the colonies formed were counted after 9 to 12 days.

Assay [3] has as its system MCF-7 human mammary carcinoma cell line. The description is as above. Type of assay: cell-based. The conditions noted are these: for % Inhibition of colony formation: 50 µM (active substance), treated once; for inhibition of colony formation: concentration not given. As to the method: as §2
For assay [4], the system named is MDA-MB-231 human mammary carcinoma cell line. The description is as above. Type of assay: cell-based. The following applies: for % Inhibition of colony formation: 50 µM. As to the method:
as §2

Assay [5] relates to PC3 human prostate carcinoma cell line. Described as above. Type of assay: cell-based. The conditions noted are these: for inhibition of colony formation: concentration not given. As to the method:
as §2

The test system of assay [6] is MDA-MB-231. Put plainly: Inhibition of colony formation by GnRH analogues (dose-survival, Example 48). Type of assay: cell-based, human. As to the method:
as §1

A further assay deals with PC3. The assay is described as above. The conditions noted are these: for % Inhibition of the colony formation: 50 µM. Type of assay: cell-based, human. As to the method: as §1
Assay [7] relates to MCF-7. The conditions noted are these: MCF-7, 30 µM active substance, conjugate, treated once, cell count on 7th day. As to the method: (§3) The procedure of treatment was as follows. After trypsinization the cells, 400,000 cells of MCF-7, MDA-MB-231 human mammary carcinoma, PC3 human prostate carcinoma or Ishikawa human endometrium tumour each were passed into Petri dishes of 10 cm in diameter. Starting from the day following transfer, the cells were treated with the substances to be tested in solution prepared with the nutrient medium during the exponential growth phase. […]

For assay [8], the system named is MDA-MB-231. The conditions noted are these: MDA-MB-231, 30 µM active substance, conjugate, treated once. As to the method:
as §3

Take `NCCCC[C@H](NC(=O)[C@H](Cc1cn(C=O)c2ccccc12)NC(=O)[C@H](CC(=O)O)NC(=O)[C@H](Cc1c[nH]cn1)NC(=O)[C@H](CO)NC(=O)[C@H](Cc1cn(C=O)c2ccccc12)NC(=O)[C@H](Cc1c[nH]cn1)NC(=O)[C@@H]1CCC(=O)N1)C(=O)N1CCC[C@H]1C(=O)NCC(N)=O` [14. [Trp(For-Ind)]^3,7- -GnRH-III, [Trp(For-Ind)]^3,7-GnRH-III]: the “% Inhibition of the colony formation” value was found to be 24% in the assay with Ishikawa and 31% with MCF-7 [1] (50 µM). Besides, the “inhibitory effect compared with the control D-Trp^6-hGnRH” value in the assay on human tumour cell lines is “approximated the activity of the control”.

With “{Lys[n-poly(N-vinylpyrrolidone-co-maleic acid)-Gly-Phe-Leu-Gly-]}^5,cyclo(Asp^6-Lys^8)-GnRH-III [P-GFLG-Lys^5-cyclo(Asp^6,Lys^8)-GnRH-III]”, the “% Inhibition of colony formation” value in assay [2] amounted to 19%; in assay [3], 78%; in assay [4] it was 82%; in [5] (50 µM), 100%. In addition, the figures for the “inhibition of colony formation” value in assay [2] and in [5] were 19% and 100%, respectively.

Turning to `NCCCC[C@H](NC(=O)[C@H](Cc1ccccc1)NC(=O)[C@H](CC(=O)O)NC(=O)[C@H](Cc1c[nH]cn1)NC(=O)[C@H](CO)NC(=O)[C@H](Cc1c[nH]c2ccccc12)NC(=O)[C@H](Cc1c[nH]cn1)NC(=O)[C@@H]1CCC(=O)N1)C(=O)N1CCC[C@H]1C(=O)NCC(N)=O` [15. Phe^7 -GnRH-III, Phe^7-GnRH-III], the “% Inhibition of the colony formation” value came out at 26% with MCF-7 [1] (50 µM) and 21% in the assay on MDA-MB-231 [6] (50 µM). For the same compound, the “inhibitory effect compared with the control D-Trp^6-hGnRH” value in the assay on human tumour cell lines is reported as “a weak if any effect”.

`CC(C)C[C@H](NC(=O)[C@@H](Cc1c[nH]c2ccccc12)NC(=O)[C@H](CCCCN)NC(=O)[C@H](CO)NC(=O)[C@H](Cc1c[nH]c2ccccc12)NC(=O)[C@H](Cc1c[nH]cn1)NC(=O)[C@@H]1CCC(=O)N1)C(=O)N[C@@H](CCCNC(=N)N)C(=O)N1CCC[C@H]1C(=O)NCC(N)=O` [17. Lys^5-DTrp^6-hGnRH, Lys^5,D-Trp^6-hGnRH] ([pGlu]HWSK[dW]LRPG-NH2): the “% Inhibition of the colony formation” value in the assay on Ishikawa worked out at 17%; with Ishikawa (listed as compound 17, 50 µM), 15%; in the assay with MCF-7 [1] (10 µM) it was 39%; in the assay on MCF-7 [1] (50 µM) it was 65%; with MDA-MB-231 [6] (10 µM), 30%; in the assay with MDA-MB-231 [6] (50 µM), 63%. Also, the “% Inhibition of the colony formation” value with PC3 amounted to 18%. Besides, the “inhibition of colony formation” value in the assay on PC3 (within the dose range used (1-50 µM)) was “weakly inhibited”. Besides, the “inhibitory effect compared with the control D-Trp^6-hGnRH” value in the assay with human tumour cell lines was “a twice stronger inhibition”.

“pGlu-His-Trp-Ser-Tyr-D-Trp-Leu-Arg-Pro-Gly-NH2 [D-Trp^6-hGnRH (Decapeptyl), reference compound]”: the “% Inhibition of the colony formation” value in the assay with MCF-7 [1] (10 µM) was 17.1%; in the assay with MCF-7 [1] (50 µM), 36.7%; with MDA-MB-231 [6] (10 µM), 15.7%; with MDA-MB-231 [6] (50 µM), 38.7%.

For the compound `CC(C)C[C@H](NC(=O)[C@@H](Cc1c[nH]c2ccccc12)NC(=O)[C@H](Cc1ccc(O)cc1)NC(=O)[C@H](CO)NC(=O)[C@H](Cc1c[nH]c2ccccc12)NC(=O)[C@H](Cc1c[nH]cn1)NC(=O)[C@@H](N)CCC(=O)O)C(=O)N[C@@H](CCCNC(=N)N)C(=O)N1CCC[C@H]1C(=O)NCC(N)=O` [19. H-Glu^1,D-Trp^6 - hGnRH, H-Glu^1,D-Trp^6-hGnRH], the “% Inhibition of the colony formation” value turned out to be 16.8% in the assay on MCF-7 [1] (10 µM) and 32.7% in the assay with MCF-7 [1] (50 µM). Moreover, in the assay with human tumour cell lines, the “inhibitory effect compared with the control D-Trp^6-hGnRH” value was “approximated the activity of the control”.

`NCCCC[C@H](NC(=O)[C@H](Cc1c[nH]c2ccccc12)NC(=O)[C@H](CCC(=O)O)NC(=O)[C@H](Cc1c[nH]cn1)NC(=O)[C@H](CO)NC(=O)[C@H](Cc1c[nH]c2ccccc12)NC(=O)[C@H](Cc1c[nH]cn1)NC(=O)[C@@H]1CCC(=O)N1)C(=O)N1CCC[C@H]1C(=O)NCC(N)=O` [8. Glu^6-GnRH-III, Glu^6-GnRH-III]: the “% Inhibition of the colony formation” value in the assay with Ishikawa stood at 2%; with MCF-7 [1] (50 µM) it was 44%; in the assay on MDA-MB-231 [6] (50 µM), 25%; with PC3 it was 31%. In addition, the “inhibitory effect compared with the control D-Trp^6-hGnRH” value in the assay with human tumour cell lines was “exceeded the inhibitory effect of control”.

Regarding “{Lys[n-poly(N-vinylpyrrolidone-co-maleic acid)-Gly-Phe-Leu-Gly-]}^4,-GnRH-III [P-GFLG-Lys^4-GnRH-III]”, the “% Inhibition of colony formation” value in [2] was found to be 25%; in assay [3], 68%; in assay [4], 75%; in assay [5] (30 µM), 94%. Moreover, the “inhibition of colony formation” value is listed as 25% in [2], 68% in assay [3], 75% in assay [4] (concentration not given) and 94% in assay [5].

As for `NCCCC[C@H](NC(=O)[C@H](Cc1c[nH]c2ccccc12)NC(=O)[C@H](CC(=O)O)NC(=O)[C@H](CCCCNC(=O)OCC1c2ccccc2-c2ccccc21)NC(=O)[C@H](CO)NC(=O)[C@H](Cc1c[nH]c2ccccc12)NC(=O)[C@H](Cc1c[nH]cn1)NC(=O)[C@@H]1CCC(=O)N1)C(=O)N1CCC[C@H]1C(=O)NCC(N)=O` [Example 26, [Lys(εFmoc)]^5-GnRH-III], in the assay with human tumour cell lines, the “inhibitory effect compared with the control D-Trp^6-hGnRH” value was “a weak if any effect”.

For `NCCCC[C@H](NC(=O)[C@H](CO)NC(=O)[C@H](Cc1c[nH]c2ccccc12)NC(=O)[C@H](Cc1c[nH]cn1)NC(=O)[C@@H]1CCC(=O)N1)C(=O)N[C@@H](CC(=O)O)C(=O)N[C@@H](Cc1c[nH]c2ccccc12)C(=O)N[C@@H](CCCCN)C(=O)N1CCC[C@H]1C(=O)NCC(N)=O` [2. Lys^5-GnRH-III, Lys^5-GnRH-III], the “% Inhibition of the colony formation” value in the assay on MCF-7 [1] (50 µM) and in the assay on MDA-MB-231 [6] (50 µM) was 0% in each case.

For “Ac-D-Trp^1,3,D-Cpa^2,{Lys[n-poly(N-vinylpyrrolidone-co-maleic acid)-Phe-Leu-Gly-]}^5,a-Asp (DEA)]^6,D-Ala^10-GnRH [P-FLG-1892]”, the “% Inhibition of cell division (proliferation)” value turned out to be 33% with MCF-7 [7] (listed as 12. P-FLG-MI-1892) and 35% with MDA-MB-231 [8] (listed as 12. P-FLG-MI-1892).

For the compound `NCCCC[C@H](NC(=O)[C@H](CO)NC(=O)[C@H](Cc1c[nH]c2ccccc12)NC(=O)[C@H](Cc1c[nH]cn1)NC(=O)[C@@H]1CCC(=O)N1)C(=O)N[C@H]1CC(=O)NCCCC[C@@H](C(=O)N2CCC[C@H]2C(=O)NCC(N)=O)NC(=O)[C@H](Cc2c[nH]c3ccccc23)NC1=O` [Lys^5, cyclo[Asp^6-Lys^8]-GnRH-III], the “inhibition of colony formation” value came out at 13% in [2] and 44% in [3]. In addition, the figures for the “% Inhibition of the colony formation” value in the assay with Ishikawa and in the assay on MCF-7 [1] (50 µM) were 13% and 44%, respectively. In addition, the “inhibitory effect compared with the control D-Trp^6-hGnRH” value in the assay with human tumour cell lines is on record as “exceeded the inhibitory effect of control”.

Turning to “Ac-D-Trip^1,3,D-Cpa^2,{Lys[n-poly(N-vinylpyrrolidone-co-maleic acid)-Gly-Leu-Gly-]}^5,[a-Asp(DEA)]^6, D-Ala^10-GnRH [P-GLG-1892]”, the results for the “% Inhibition of cell division (proliferation)” value in the assay with MCF-7 [7] (listed as 13. P-GLG-MI-1892) and with MDA-MB-231 [8] (listed as 13. P-GLG-MI-1892) were 33% and 35%, respectively.
